Literature values, collected in US8133870B2, “Therapeutic furopyrimidines and thienopyrimidines” (BioCryst Pharmaceuticals, Inc., priority 2004, dated 2012).

System: HCV

Compound: NC(=O)c1ncn([C@@H]2O[C@H](CO)[C@@H](O)[C@H]2O)n1 [Ribavirin, 1-β-D-ribofuranosyl-1-1,2,4-triazole-3-carboxamide]
- toxicity (ribavirin): significant toxicity
- patients in whom serum amino transferase levels are reduced to normal (ribavirin alone, patients): 40%
- serum levels of HCV-RNA (ribavirin alone, patients): does not lower serum levels of HCV-RNA
